Laboratory results: US20260184687A1, “DIHYDROINDENE DERIVATIVES AS MALT1 INHIBITORS” (C4X Discovery Limited, priority 2022, published 2026)

Key:
[1] = tested on: IL-2 release from stimulated Jurkat cells; experiment: Human IL-2 Release Phenotypic Assay (Assay 3); type: cell-based; conditions: Jurkat cells (clone E6-1), 200 ng/mL PMA + 300 ng/mL ionomycin, IL-2 by ELISA
Method in brief: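 Jurkat E6-1 cells in RPMI1640/10% FBS were seeded at 50 000 cells/well and incubated overnight at 37° C. Half-log compound dilutions (0.5% final DMSO) were added for 30 min, then cells were stimulated with 200 ng/mL PMA + 300 ng/mL ionomycin for 48 h. IC50 came from a 4-parameter non-linear regression fit.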

[2] = biological target: T1, FL hMALT1 enzyme (Homo sapiens, UniProt Q9UDY8); experiment: biochemical;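 further: Cell-free protease assay: enzyme preincubated with compound 30 min at room temperature, then cleavage of fluorogenic Ac-LVSR-AMC substrate (100 µM) tracked by fluorescence (ex 360/em 460 nm)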
T1 sequence (Q9UDY8 1-824): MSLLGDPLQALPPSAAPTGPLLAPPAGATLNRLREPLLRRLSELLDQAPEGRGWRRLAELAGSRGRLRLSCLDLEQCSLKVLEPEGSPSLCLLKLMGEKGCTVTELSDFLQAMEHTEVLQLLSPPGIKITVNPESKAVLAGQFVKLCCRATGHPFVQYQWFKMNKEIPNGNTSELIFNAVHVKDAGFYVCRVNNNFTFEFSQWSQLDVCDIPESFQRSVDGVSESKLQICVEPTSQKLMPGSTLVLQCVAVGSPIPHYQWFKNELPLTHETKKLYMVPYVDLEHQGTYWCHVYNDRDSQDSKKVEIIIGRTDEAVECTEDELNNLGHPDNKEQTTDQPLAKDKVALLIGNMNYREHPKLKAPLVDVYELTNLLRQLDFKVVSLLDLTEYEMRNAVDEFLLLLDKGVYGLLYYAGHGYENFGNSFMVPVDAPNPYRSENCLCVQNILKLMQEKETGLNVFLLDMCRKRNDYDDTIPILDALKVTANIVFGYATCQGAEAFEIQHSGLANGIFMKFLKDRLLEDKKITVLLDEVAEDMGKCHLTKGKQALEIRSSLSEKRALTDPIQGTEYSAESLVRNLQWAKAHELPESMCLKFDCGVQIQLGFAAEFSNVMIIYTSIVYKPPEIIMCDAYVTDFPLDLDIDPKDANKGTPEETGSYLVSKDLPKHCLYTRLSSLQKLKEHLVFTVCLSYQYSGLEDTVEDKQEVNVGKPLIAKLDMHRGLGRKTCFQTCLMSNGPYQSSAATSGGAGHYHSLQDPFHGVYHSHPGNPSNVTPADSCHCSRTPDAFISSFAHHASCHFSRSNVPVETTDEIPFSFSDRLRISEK

SMILES	IC50 ([1]; Homo sapiens, Jurkat, 48 h) [nM]	IC50 [2] [nM]	IC50 ([1]; 48 hours) [nM]
CN1CCC(C(=O)N(C)[C@@H](c2ccc(NC3Cc4ccccc4C3(C)C)nc2)C(F)(F)F)CC1 (single isomer, unassigned) [Example 144]	2630	210	–
CN(C(=O)C1CCNCC1)[C@@H](c1ccc(NC2Cc3ccccc3C2(C)C)cn1)C(F)(F)F (single isomer, unassigned) [Example 146]	480	110	–
CN(C(=O)[C@H]1C[C@@]2(CCN2C)C1)[C@@H](c1ccc(NC2Cc3ccccc3C2(C)C)cn1)C(F)(F)F (single isomer, unassigned) [Example 156]	–	170	1720
CN(C(=O)[C@H]1C[C@@]2(CCN2C)C1)[C@@H](c1ccc(NC2Cc3ccccc3C2(C)C)cn1)C(F)(F)F (single isomer, unassigned) [Example 157]	–	64	770
CN(C(=O)[C@H]1C[C@]2(CCN2C)C1)[C@@H](c1ccc(NC2Cc3ccccc3C2(C)C)cn1)C(F)(F)F (single isomer, unassigned) [Example 159]	1160	140	–
CN(C(=O)C1COCC(=O)N1)[C@@H](c1ccc(NC2Cc3ccccc3C2(C)C)cn1)C(F)(F)F (single isomer, unassigned) [Example 164]	150	33	–
CN(C(=O)C1CC2(CNC(=O)OC2)C1)[C@@H](c1ccc(NC2Cc3ccccc3C2(C)C)nc1)C(F)(F)F (single isomer, unassigned) [Example 174]	890	70	–
CN(C(=O)C1CC2(CNC(=O)OC2)C1)[C@@H](c1ccc(NC2Cc3ccccc3C2(C)C)nc1)C(F)(F)F (single isomer, unassigned) [Example 175]	–	54	810
CCN(C(=O)C1CCS(=O)(=O)CC1)[C@@H](c1ccc(NC2Cc3ccccc3C2(C)C)cn1)C(F)(F)F (single isomer, unassigned) [Example 188]	–	47	650
CCN(C(=O)C1CCS(=O)(=O)CC1)[C@@H](c1ccc(NC2Cc3ccccc3C2(C)C)cn1)C(F)(F)F (single isomer, unassigned) [Example 189]	–	91	3000
CN(C(=O)C1CCS(=O)(=O)CC1)[C@@H](c1ccc(NC2Cc3cccc(C(F)(F)F)c3C2)cn1)C(F)(F)F (single isomer, unassigned) [Example 191]	740	26	–
CC(=O)N1CCC[C@H]1C(=O)N(C)[C@@H](c1ccc(N[C@H]2Cc3ccccc3C2(C)C)cn1)C(F)(F)F (single isomer, unassigned) [Example 194]	630	53	–
CCc1cccc2c1CC(Nc1ccc([C@H](N(C)C(=O)C3CCS(=O)(=O)CC3)C(F)(F)F)nc1)C2 (single isomer, unassigned) [Example 198]	1200	78	–
CN(C(=O)C1CCS(=O)(=O)CC1)[C@@H](c1ccc(N[C@H]2Cc3ccc(Cl)cc3C2)cn1)C(F)(F)F (single isomer, unassigned) [Example 199]	290	73	–
CN(C(=O)[C@H]1C[C@@]2(COC(=O)N2)C1)[C@@H](c1ccc(NC2Cc3ccccc3C2(C)C)cn1)C(F)(F)F (single isomer, unassigned) [Example 208]	250	27	–
CN(C(=O)C1CN(S(C)(=O)=O)C1)[C@@H](c1ccc(NC2Cc3ccccc3C2(C)C)cn1)C(F)(F)F (single isomer, unassigned) [Example 209]	380	52	–
CN(C(=O)C1C2CS(=O)(=O)CC21)[C@@H](c1ccc(NC2Cc3ccccc3C2(C)C)cn1)C(F)(F)F (single isomer, unassigned) [Example 215]	–	88	630
CN(C(=O)C1C2CS(=O)(=O)CC21)[C@@H](c1ccc(NC2Cc3ccccc3C2(C)C)cn1)C(F)(F)F (single isomer, unassigned) [Example 216]	–	51	1900
CN1C(=O)CCC1C(=O)N(C)[C@@H](c1ccc(N[C@H]2Cc3ccccc3C2(C)C)cn1)C(F)(F)F (single isomer, unassigned) [Example 225]	–	63	520
CN1C(=O)CCC1C(=O)N(C)[C@@H](c1ccc(N[C@H]2Cc3ccccc3C2(C)C)cn1)C(F)(F)F (single isomer, unassigned) [Example 226]	–	39	250

SMILES	IC50 ([1]; Homo sapiens, Jurkat, 48 h) [nM]	IC50 [2] [nM]	IC50 ([1]; 48 hours) [nM]
CNC(=O)N1CC(C(=O)N(C)[C@@H](c2ccc(NC3Cc4ccccc4C3(C)C)cn2)C(F)(F)F)C1 (single isomer, unassigned) [Example 227]	–	18	99
CNC(=O)N1CC(C(=O)N(C)[C@@H](c2ccc(NC3Cc4ccccc4C3(C)C)cn2)C(F)(F)F)C1 (single isomer, unassigned) [Example 228]	–	57	1000
CN(C(=O)C1CC2(CCC(=O)N2)C1)[C@@H](c1ccc(NC2Cc3ccccc3C2(C)C)cn1)C(F)(F)F (single isomer, unassigned) [Example 230]	340	38	–
CN(C(=O)C1CC2(CCC(=O)N2)C1)[C@@H](c1ccc(NC2Cc3ccccc3C2(C)C)cn1)C(F)(F)F (single isomer, unassigned) [Example 232]	–	30	180
CC(=O)N1CCC12CC(C(=O)N(C)[C@@H](c1ccc(NC3Cc4ccccc4C3(C)C)cn1)C(F)(F)F)C2 (single isomer, unassigned) [Example 235]	1000	60	–
COCCN1CCC12CC(C(=O)N(C)[C@@H](c1ccc(NC3Cc4ccccc4C3(C)C)cn1)C(F)(F)F)C2 (single isomer, unassigned) [Example 243]	640	86	–
CN(C(=O)C1CC2(CCN2CCO)C1)[C@@H](c1ccc(NC2Cc3ccccc3C2(C)C)cn1)C(F)(F)F (single isomer, unassigned) [Example 249]	350	50	–
CN1CCC(C(=O)N(C)[C@@H](c2ccc(N[C@H]3Cc4ccccc4C3(C)C)cn2)C(F)(F)F)CC1=O (single isomer, unassigned) [Example 250]	300	41	–
CN1CCC(C(=O)N(C)[C@@H](c2ccc(N[C@H]3Cc4ccccc4C3(C)C)cn2)C(F)(F)F)CC1=O (single isomer, unassigned) [Example 251]	–	32	320
CN1CC(C(=O)N(C)[C@@H](c2ccc(N[C@H]3Cc4ccccc4C3(C)C)cn2)C(F)(F)F)CCC1=O (single isomer, unassigned) [Example 252]	590	71	–
CN1CC(C(=O)N(C)[C@@H](c2ccc(N[C@H]3Cc4ccccc4C3(C)C)cn2)C(F)(F)F)CCC1=O (single isomer, unassigned) [Example 253]	–	66	420
CN(C(=O)C1CCS(=O)(=O)CC1)[C@@H](c1ccc(NC2Cc3cccc(C4CC4)c3C2)cn1)C(F)(F)F (single isomer, unassigned) [Example 254]	1400	53	–
CN(C(=O)C1CCS(=O)(=O)CC1)[C@@H](c1ccc(NC2Cc3ccc(F)c(F)c3C2)cn1)C(F)(F)F (single isomer, unassigned) [Example 261]	–	82	1410
CN(C(=O)C1CCS(=O)(=O)CC1)[C@@H](c1ccc(NC2Cc3ccc(F)c(F)c3C2)cn1)C(F)(F)F (single isomer, unassigned) [Example 262]	–	2680	7700
CN(C(=O)C1CCS(=O)(=O)CC1)[C@@H](c1ccc(NC2Cc3cccc(Cl)c3C2)cn1)C(F)(F)F (single isomer, unassigned) [Example 263]	510	61	–
CN(C(=O)C1CCS(=O)(=O)CC1)[C@@H](c1ccc(NC2Cc3ccc(F)c(Cl)c3C2)cn1)C(F)(F)F (single isomer, unassigned) [Example 265]	220	32	–
CN(C(=O)C1CCS(=O)(=O)CC1)[C@@H](c1ccc(NC2Cc3cc(Cl)cc(F)c3C2)cn1)C(F)(F)F (single isomer, unassigned) [Example 270]	270	81	–
CN(C(=O)C1CCS(=O)(=O)CC1)[C@@H](c1ccc(NC2Cc3ccc(Cl)c(F)c3C2)cn1)C(F)(F)F (single isomer, unassigned) [Example 277]	200	43	–
CN(C(=O)C1CCS(=O)(=O)CC1)[C@@H](c1ccc(NC2Cc3ccc(Cl)c(Cl)c3C2)cn1)C(F)(F)F (single isomer, unassigned) [Example 279]	96	15	–
